Measured values published in article PMC5438368, “Characterization of TRPA channels in the starfish Patiria pectinifera: involvement of thermally activated TRPA1 in thermotaxis in marine planktonic larvae” (Scientific Reports, 2017).

Tests used:
[1] = target: T1, PpTRPA1 (Patiria pectinifera, UniProt A0A1Y1C7R6); assay: two-electrode voltage clamp, Xenopus laevis oocytes; type: cell-based
T1 construct: cRNA in Xenopus laevis oocytes; no tag told; PCR primers imply N-terminus MEGDE and C-terminus EHDGSNTA
T1 sequence (A0A1Y1C7R6 1-1200): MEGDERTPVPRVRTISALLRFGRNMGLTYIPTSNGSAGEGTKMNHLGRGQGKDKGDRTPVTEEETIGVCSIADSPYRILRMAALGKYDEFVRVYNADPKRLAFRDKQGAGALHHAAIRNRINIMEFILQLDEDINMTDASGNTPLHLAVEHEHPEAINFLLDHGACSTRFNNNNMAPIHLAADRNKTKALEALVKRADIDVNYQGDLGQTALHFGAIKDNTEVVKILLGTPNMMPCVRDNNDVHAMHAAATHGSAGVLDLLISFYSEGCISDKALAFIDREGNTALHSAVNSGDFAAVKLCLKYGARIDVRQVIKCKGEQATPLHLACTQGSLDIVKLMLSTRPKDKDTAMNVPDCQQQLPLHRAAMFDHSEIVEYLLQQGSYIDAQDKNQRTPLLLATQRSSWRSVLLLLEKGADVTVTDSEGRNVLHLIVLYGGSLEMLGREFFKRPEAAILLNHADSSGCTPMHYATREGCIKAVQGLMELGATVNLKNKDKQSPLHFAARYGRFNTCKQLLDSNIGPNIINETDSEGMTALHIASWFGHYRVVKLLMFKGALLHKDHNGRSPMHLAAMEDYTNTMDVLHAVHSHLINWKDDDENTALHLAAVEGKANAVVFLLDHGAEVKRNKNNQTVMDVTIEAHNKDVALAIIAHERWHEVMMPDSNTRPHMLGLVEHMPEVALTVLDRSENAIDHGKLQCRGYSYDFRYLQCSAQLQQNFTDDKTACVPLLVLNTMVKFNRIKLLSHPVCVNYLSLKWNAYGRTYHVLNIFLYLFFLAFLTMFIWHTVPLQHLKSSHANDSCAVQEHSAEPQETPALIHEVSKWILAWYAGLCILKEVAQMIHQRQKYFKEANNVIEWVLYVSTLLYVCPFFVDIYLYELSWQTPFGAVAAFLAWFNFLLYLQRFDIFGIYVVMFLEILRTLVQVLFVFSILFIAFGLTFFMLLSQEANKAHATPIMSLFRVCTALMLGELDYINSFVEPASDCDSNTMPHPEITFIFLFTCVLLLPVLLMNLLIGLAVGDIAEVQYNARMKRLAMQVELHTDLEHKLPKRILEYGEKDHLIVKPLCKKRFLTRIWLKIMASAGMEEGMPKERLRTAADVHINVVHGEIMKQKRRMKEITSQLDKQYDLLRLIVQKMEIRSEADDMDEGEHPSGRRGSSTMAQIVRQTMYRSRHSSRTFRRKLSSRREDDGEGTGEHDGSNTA

[2] = target: T1, PpTRPA1; assay: as above; type: cell-based; conditions: agonist; ND96 bath, pH 7.4; -60 mV; n = 3; cinnamaldehyde concentration not in text

| Compound | EC50 [1] [µM] | two-electrode voltage clamp, Xenopus laevis oocytes [2] |
| --- | --- | --- |
| C=CCN=C=S [AITC, allyl isothiocyanate] | 117 | – |
| O=CC=Cc1ccccc1 [CA, cinnamaldehyde] | – | Cinnamaldehyde (CA), another TRPA1 agonist, also evoked inward currents in X. laevis oocytes expressing PpTRPA1 |
